Measurements: patent US5965524A, “Analogs of viscosin and uses thereof” (Peptide Technologies Corporation, priority 1994, dated 1999)
Read-outs that look alike come from different tables or passages of the source.

Assays:
[1] = test system: Herpes Simplex Virus 2 (HSV-2); assay: Inhibition of HSV-2 growth in cultured cells; type: cell-based; conditions: lowest concentration at which 50% of the viruses are rendered noninfective
Text: Particularly preferred host cells are rabbit skin cells or Vero cells. […] Acyclovir, a known antiherpesviral agent (Douglas, R., Chapter 51 in Goodman and Gilman's the Pharmacological Basis of Therapeutics, 8th Ed., G. Gilman et al., eds., Pergamon Press, New York (1980)), was used as a positive control.

[2] = Cell toxicity in the HSV-2 assay
Text: (Davis, B., Chapter 55 in Microbiology, Including Immunology and Molecular Genetics, 3rd Ed., Harper & Row, Philadelphia (1980), p. 1064). Particularly preferred host cells are rabbit skin cells or Vero cells. (Grammer, S., et al., J. Immunol. 145:2249-2253 (1990); Gao, W., et al., J. Biol. Chem. 265:20172-20178 (1990)). […] (See, e.g., Groupe, V., et al., Proc. Soc. Exptl. Biol. Med. 78:354-358 (1951); Mitsuya, H., et al., Science 226:172-174 (1984)). Acyclovir, a known antiherpesviral agent (Douglas, R., Chapter 51 in Goodman and Gilman's the Pharmacological Basis of Therapeutics, 8th Ed., G. Gilman et al., eds., Pergamon Press, New York (1980)), was used as a positive control.

Leishmania donovani [3] = assay: Lysis of L. donovani parasites; type: cell-based; conditions: parasites 1x10^8 per mL in HBSS; examined at 4 hr and after overnight at 27° C.
Leishmania donovani [4] = assay: Effect on growth of L. donovani in serum-containing and serum-free medium; type: cell-based; conditions: cell densities at 21 hr, in some cases 43 hr, 27° C.; for Lowest concentration with activity against L. Donovani: Growth: serum-containing M199 medium; for Lowest concentration with activity against L. Donovani: Growth (Serum Free Medium): serum-free REIII medium
Protocol: For the purpose of determining the effect of the compounds on the growth of parasite in serum-containing and serum-free medium, the parasites were harvested from culture medium M199+5% FBS, washed twice in HBSS and resuspended in same at 1×10^8 /mL. Serum-containing M199 ans serum-free REIII media were filtered and sterilized prior to use. The washed cells were added to achieve an initial concentration of 1.66×10^6 cells/mL. Cell densities were determined by hemacytometry at 21 hr, and in some cases at 43 hr of incubation at 27° C.

| Molecule | HSV-2 LD50 [1] | Cell Toxicity ([2]; host cells of the HSV-2 assay) | Lowest concentration with activity against L. Donovani: Lysis (Leishmania donovani [3]) | Cell Toxicity [2] | Lowest concentration with activity against L. Donovani: Growth (Leishmania donovani [4]) | Lowest concentration with activity against L. Donovani: Growth (Serum Free Medium) (Leishmania donovani [4]) |
| --- | --- | --- | --- | --- | --- | --- |
| Nc1nc2c(ncn2COCCO)c(=O)[nH]1 [Acyclovir, reference compound] | 0.6 to 1.5 µg/mL |  |  |  |  |  |
| CCCCCCC[C@@H](O)CC(=O)N[C@@H](CC(C)C)C(=O)N[C@H](CCC(=O)O)C(=O)N[C@@H](C(=O)N[C@@H](C(=O)N[C@@H](CC(C)C)C(=O)N[C@H](CO)C(=O)N[C@@H](CC(C)C)C(=O)N[C@H](CO)C(=O)N[C@H](C(=O)O)[C@@H](C)CC)C(C)C)[C@@H](C)O [Compound 5, Viscosic Acid] |  | > 100 µg/mL |  |  |  |  |
| CCCCCCC[C@@H](O)CC(=O)N[C@@H](CC(C)C)C(=O)N[C@H](CCC(=O)O)C(N)=O [Compound 7, D-3-Hydroxydecanoyl-L-Leu-D-Glu-Amide] | > 100 µg/mL |  | no effect | > 100 µg/mL | no effect | no effect |
| CCCCCCC[C@@H](O)CC(=O)N[C@@H](CC(C)C)C(=O)N[C@H](CCC(=O)OCc1ccccc1)C(=O)Nc1ccc2c(c1)OCCOCCOCCOCCO2 [Compound 10, 15-[[N-[N-[D-3-Hydroxydecanoyl]-L-Leucyl]-O-(phenylmethyl)-D-glutamyl]amino]-2,3,5,6,8,9,11,12-octahydro-1,4,7,10,13-benzopentaoxacyclopentadecin] | > 100 µg/mL |  | 30 mg/mL | > 100 µg/mL | 100 mg/mL | 100 mg/mL |
| CCCCCCC[C@@H](O)CC(=O)N[C@@H](CC(C)C)C(=O)N[C@H](CCC(=O)O)C(=O)Nc1ccc2c(c1)OCCOCCOCCOCCO2 [Compound 11, 15-[[N-[N-[D-3-Hydroxydecanoyl]-L-Leucyl]-D-glutamyl]amino]-2,3,5,6,8,9,11,12-octahydro-1,4,7,10,13-benzopentaoxacyclopentadecin] | > 100 µg/mL |  | no effect | > 100 µg/mL | no effect | no effect |
| CCCCCCCCCC(=O)N[C@@H](CC(C)C)C(=O)N[C@H](CCC(=O)OCc1ccccc1)C(=O)Nc1ccc2c(c1)OCCOCCOCCOCCO2 [Compound 12, 15-[[N-[N-[Decanoyl]-L-Leucyl]-O-(phenylmethyl)-D-glutamyl]amino]-2,3,5,6,8,9,11,12-octahydro-1,4,7,10,13-benzopentaoxacyclopentadecin] | > 50 µg/mL |  | 100 mg/mL | 100 µg/mL | no effect | no effect |
| CCCCCCCCCC(=O)N[C@@H](CC(C)C)C(=O)N[C@H](CCC(=O)O)C(=O)Nc1ccc2c(c1)OCCOCCOCCOCCO2 [Compound 13, 15-[[N-[N-[Decanoyl]-L-Leucyl]-D-glutamyl]amino]-2,3,5,6,8,9,11,12-octahydro-1,4,7,10,13-benzopentaoxacyclopentadecin] | > 100 µg/mL |  | no effect | > 100 µg/mL | no effect | no effect |
| CCCCCCCCCCCCCCC(CCC(=O)OCc1ccccc1)C(=O)Nc1ccc2c(c1)OCCOCCOCCOCCO2 (stereo not shown) [Compound 14] | > 33 µg/mL |  | 30 mg/mL | 100 µg/mL | 100 mg/mL | 10 mg/mL |
| CCCCCCCCCCCCCCC(CCC(=O)O)C(=O)Nc1ccc2c(c1)OCCOCCOCCOCCO2 (stereo not shown) [Compound 15] | 11 µg/mL |  | 30 mg/mL | 33 µg/mL | 30 mg/mL | 10 mg/mL |
| CC(=O)Nc1ccc2c(c1)OCCOCCOCCOCCO2 [Compound 16] | > 100 µg/mL |  |  | > 100 µg/mL |  |  |
| CCCCCCCCCCCCCCCCCC(=O)c1ccc2c(c1)OCCOCCOCCOCCO2 [Compound 42, Octadecanoyl benzo-15-Crown-5-ether] | > 100 µg/mL |  |  | > 100 µg/mL |  |  |
| Deshydroxy Viscosin [Compound 3] | 19 to 28 µg/mL |  |  |  |  |  |
| Octadecanoyl Viscosin [Compound 4] | > 100 µg/mL |  |  |  |  |  |
